The values below come from ChEMBL document CHEMBL1764952, “A novel application of DDQ as electrophile in the Nenitzescu reaction” (Bioorg Med Chem, 2011).

Where only a bound is given, the exact number is not on record here.

In test [1] the target is T1, Casein kinase II (Homo sapiens) (UniProt P67870+P68400+P19784). As to the kind of experiment: Inhibition of human recombinant CK2 using RRRDDDSDDD-EDANS peptide substrate at […] by capillary electrophoresis analysis. Type of test: protein-complex assay.
The target in test [2] is T1, Casein kinase II (Homo sapiens). Briefly: Inhibition of human recombinant CK2 using RRRDDDSDDD-EDANS peptide substrate at 10 µM by capillary electrophoresis analysis.
For a further test, the system named is DU-145. As to the kind of experiment: Antitumor activity against human DU145 cells assessed as growth inhibition. Type of test: functional.
For the next test, the system named is HOP-92. As to the kind of experiment: Antitumor activity against human HOP92 cells assessed as growth inhibition. Type of test: functional.
Another test has as its system OVCAR-5. Briefly: Antitumor activity against human OVCAR5 cells assessed as growth inhibition. The class given is functional.
Test [3] in a line: Antitumor activity against human NCI-ADR-RES cells assessed as growth inhibition. Type of test: functional.
The target in the next test is Casein kinase II (Homo sapiens, UniProt P19784+P67870+P68400). As to the kind of experiment: Inhibition of human recombinant CK2 using RRRDDDSDDD-EDANS peptide substrate by capillary electrophoresis analysis. Type of test: protein-complex assay.
The species named for another test is Homo sapiens. Briefly: Antitumor activity against human lymphoma assessed as growth inhibition at 27 uM. The class given is functional.

Chain of Casein kinase II (P67870 whole entry): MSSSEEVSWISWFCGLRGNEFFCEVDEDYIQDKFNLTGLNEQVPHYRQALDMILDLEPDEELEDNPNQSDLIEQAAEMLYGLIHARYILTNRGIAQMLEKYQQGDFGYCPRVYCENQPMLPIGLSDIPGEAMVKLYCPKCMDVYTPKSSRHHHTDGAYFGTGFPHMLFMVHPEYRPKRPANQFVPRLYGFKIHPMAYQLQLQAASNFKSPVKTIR
Chain of Casein kinase II (P68400 whole entry): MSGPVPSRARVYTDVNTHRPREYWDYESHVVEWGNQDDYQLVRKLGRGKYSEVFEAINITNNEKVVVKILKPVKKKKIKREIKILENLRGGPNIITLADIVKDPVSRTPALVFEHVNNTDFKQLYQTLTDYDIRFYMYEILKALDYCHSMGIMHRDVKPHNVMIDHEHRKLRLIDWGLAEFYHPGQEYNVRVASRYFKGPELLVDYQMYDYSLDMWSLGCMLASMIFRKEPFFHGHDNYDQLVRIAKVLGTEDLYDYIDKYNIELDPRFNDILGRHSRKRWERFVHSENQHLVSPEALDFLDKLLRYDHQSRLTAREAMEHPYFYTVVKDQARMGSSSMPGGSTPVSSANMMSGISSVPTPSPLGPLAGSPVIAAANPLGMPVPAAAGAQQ
Chain of Casein kinase II (P19784 whole entry): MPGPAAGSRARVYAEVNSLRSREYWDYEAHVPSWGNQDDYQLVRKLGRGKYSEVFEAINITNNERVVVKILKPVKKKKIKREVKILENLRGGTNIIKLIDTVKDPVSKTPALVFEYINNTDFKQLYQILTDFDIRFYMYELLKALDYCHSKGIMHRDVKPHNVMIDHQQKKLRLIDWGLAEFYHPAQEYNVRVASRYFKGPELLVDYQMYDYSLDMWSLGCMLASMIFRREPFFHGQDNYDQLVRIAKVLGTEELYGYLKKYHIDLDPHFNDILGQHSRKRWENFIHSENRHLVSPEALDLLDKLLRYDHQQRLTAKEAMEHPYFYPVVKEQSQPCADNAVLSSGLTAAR

For orientation: inhibition means the relative decrease from the control value, in per cent. With `CCOC(=O)C1=C(C)N(Cc2ccc(Cl)cc2Cl)/C(=N\C(C)=O)C12C(=O)C(Cl)=C(Cl)C(OC(C)=O)=C2C#N` (centres undefined), in test [1], the inhibition was 0%. In the case of `CCOC(=O)c1oc2ccc(OC(C)=O)c(CNC(C)=O)c2c1NC(C)=O`, the inhibition in test [2] came out at 0%.

Usually GI50 stands for the concentration giving 50% growth inhibition. For the molecule `CCOC(=O)C1=C(C)N(c2ccc(Cl)cc2)C(=N)C12C(=O)C(Cl)=C(Cl)C(O)=C2C#N` (centres undefined), the 50% growth inhibitory concentration (GI50) in the test with DU-145 was 339 nM. Regarding `CCOC(=O)C1=C(c2ccccc2)N(c2ccc(OC)cc2)C(=N)C12C(=O)C(Cl)=C(Cl)C(O)=C2C#N` (centres undefined), in the test with HOP-92, the GI50 is 550 nM.

Consider `CCOC(=O)C1=C(C)N(c2ccc(F)cc2F)C(=N)C12C(=O)C(Cl)=C(Cl)C(O)=C2C#N` (centres undefined), for which the GI50 with HOP-92 was 1780 nM.

For `CC(C)=CC(=O)c1coc2ccc(O)cc12`, the inhibition in test [2] turned out to be 39%. On to `CCOC(=O)C1=C(C)N(Cc2ccc(Cl)cc2Cl)C(=N)C12C(=O)C(Cl)=C(Cl)C(O)=C2C#N` (centres undefined), for which the concentration for 50% growth inhibition (GI50) was 2690 nM in the test on OVCAR-5 and 191 nM in test [3]. Consider `CC(C)=CC(=O)c1oc2c(Cl)c(Cl)c(O)c(C#N)c2c1N`, for which, in test [2], the inhibition was > 96%.

In general, IC50 refers to the concentration needed to halve the response being measured. Regarding `CCOC(=O)c1oc2c(Cl)c(Cl)c(OC(C)=O)c(C#N)c2c1N`, the half-maximal inhibitory concentration (IC50) on Casein kinase II turned out to be 2400 nM. Besides, the inhibition in test [2] was 69%. Consider `CC(=O)Oc1c(Cl)c(Cl)c2oc(C(=O)C=C(C)C)c(N)c2c1C#N`, for which the growth inhibition (GI) in the test listed under Homo sapiens was > 99%. Further, the half-maximal inhibitory concentration (IC50) on Casein kinase II is 200 nM. For the same molecule, the inhibition in test [2] was 93%.
